Where “and” joins values, the source holds several entries; their conditions need not be identical. Identical values can stand only once.

From ChEMBL document CHEMBL3988442, “University of Dundee, Small-Polar-MMV Screening Library” (2021) come the findings set out here.

This experiment deals with T1, Histidine--tRNA ligase (Leishmania infantum, UniProt A4I591).
T1 sequence (A4I591 whole entry): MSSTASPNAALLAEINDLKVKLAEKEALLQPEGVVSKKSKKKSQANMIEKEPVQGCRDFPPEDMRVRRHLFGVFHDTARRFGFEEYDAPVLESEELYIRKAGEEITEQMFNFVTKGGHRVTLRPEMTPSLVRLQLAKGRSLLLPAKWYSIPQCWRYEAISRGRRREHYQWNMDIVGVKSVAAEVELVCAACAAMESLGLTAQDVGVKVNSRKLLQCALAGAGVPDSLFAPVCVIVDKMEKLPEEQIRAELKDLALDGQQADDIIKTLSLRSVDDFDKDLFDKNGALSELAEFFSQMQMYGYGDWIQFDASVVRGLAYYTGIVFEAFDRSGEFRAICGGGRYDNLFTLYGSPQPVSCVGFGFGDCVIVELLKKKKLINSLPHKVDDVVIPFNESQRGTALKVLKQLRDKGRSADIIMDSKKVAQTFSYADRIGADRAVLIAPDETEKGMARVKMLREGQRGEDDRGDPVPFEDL
In words: Leishmania infantum Histidine tRNA synthetase (LdHisRS). It counts as functional.
For the compound `CCCn1nc2c(cc1=O)CN(CC1CCCCO1)CC2` (configuration not stated), the IC50 is 33.8 µM and 42.3 µM.

As for `Cc1nn(CCC#N)c(C)c1[C@@H]1C=C[C@@H](NCc2cccc(Cl)c2)C1`, the concentration for half-maximal inhibition (IC50) is more than 100 µM. Under `Cc1nnc(NCCc2coc(-c3ccc(F)cc3)n2)c(C#N)c1C` stands > 100 µM and 55.9 µM; under `COc1cc(CNc2cnn(C)c2)cc2c1OCCO2`, more than 100 µM. The same measure for `CCC(=O)Nc1cc(Br)cn(C)c1=O`: 7.66 µM and 7.91 µM; for `c1ccc(Cn2cc(CNCC3CCCN3c3cccnn3)cn2)cc1` (configuration not stated): more than 100 µM; for `Cc1noc(C)c1C(=O)N1CCC(Nc2cccnn2)CC1`: more than 100 µM. Take `COc1nccnc1-c1cc(NC2CCNCC2)nc2[nH]ccc12`: the half-maximal inhibitory concentration (IC50) is 34.1 µM and 29.8 µM.

With `COc1ccc2c(c1)CC(NCc1cccc(OCC(N)=O)c1)CC2` (configuration not stated), the half-maximal inhibitory concentration (IC50) was 17 µM and 23.6 µM.

Take `CN1CCN(Cc2nnc(C3CCN(C(CO)CO)CC3)n2C)CC1`: the IC50 is 16 µM and 15.8 µM. Turning to `O=C(c1ccc2[nH]ccc2c1)N1Cc2nc(CN3CCCCC3)oc2C1`, the IC50 was 33.7 µM and 23.5 µM. The same measure for `Cc1cccc2c1nc(COCC(=O)O)n2-c1cnc(N)cn1`: more than 100 µM; for `c1cc(-c2ccc3c(c2)C2(CC3)CCN(c3nncs3)CC2)ccn1`: 29.8 µM and 26.8 µM. The same measure for `O=C(C1=NN(Cc2ccccc2)c2ccccc2S1(=O)=O)N1CCCC1`: 40.6 µM and 39.5 µM; for `C[C@H](NS(C)(=O)=O)C(=O)NCc1cc(-c2ccco2)n[nH]1`: more than 100 µM. The same measure for `O=C(NC1CCCN(c2ccc(OC(F)F)cc2)C1)c1ccon1` (configuration not stated): more than 100 µM; for `Cc1noc(C)c1CN1CCc2nn(C(C)C)c(=O)cc2C1`: 86 µM and > 100 µM. As to `Cc1noc(C)c1CNc1c(N2CCCC2)cccc1N1CCCC1`, the IC50 was more than 100 µM. The same measure for `O=C(Cc1cnc(-c2c(Cl)cccc2Cl)s1)N1CCOCC1`: more than 100 µM; for `NC(=O)C1=NC2=NS(=O)(=O)c3ccccc3N2N1Cc1ccc(Br)cc1`: 41 µM and 69.9 µM. Under `Cc1nn(-c2ccccn2)c(C)c1[C@@H]1C=C[C@@H](NC(=O)NC(C)C)C1` stands > 100 µM and 88 µM; under `O=C(NC[C@H]1CCCC[C@H]1O)c1ccc2nc(-c3ccco3)[nH]c2c1`, 21 µM and 25.5 µM; under `Cc1ccsc1C(=O)Nc1cc(Br)c(=O)n(C)c1`, 30.3 µM and 25.3 µM. Under `Cn1nc2c(cc1=O)CN(Cc1nc(-c3ccccn3)no1)CC2` stands more than 100 µM; under `CC(=O)NCC(=O)N1Cc2nccn2CC(COc2cccnc2)C1` (configuration not stated), more than 100 µM; under `NC(=O)CCS(=O)(=O)Cc1ccc(OCC(F)(F)F)cc1`, > 100 µM and 68.4 µM. In the case of `CC(=O)N1CCO[C@@H]2CN(S(=O)(=O)c3ccc(C)cc3)CC[C@@H]2C1`, the IC50 is more than 100 µM. The same measure for `Cn1cccc(NC(=O)NCCc2cccc(O)c2)c1=O`: 15.5 µM and 13 µM. The same measure for `COc1cccc(CN2CCN(CC(C)C)C(=O)C2C)c1O` (configuration not stated): 6.15 µM and 5.67 µM.

For the compound `CCCn1nc2c(cc1=O)CN(Cc1ccccn1)CC2`, the IC50 is 20.9 µM and 17.8 µM.

Take `O=c1c2cnc(N3CCOCC3)nc2ccn1-c1ccccc1`: the half-maximal inhibitory concentration (IC50) was more than 100 µM. The same measure for `CN1CCCN(C(=O)c2nc3c(s2)CCCN3CC2CC2)CC1`: 77.9 µM and 55.6 µM. Under `CC(=O)N1CCN(c2ccccc2CNc2ccc3[nH]ncc3c2)CC1` stands > 100 µM and 76.7 µM. Turning to `COc1ccc(C(C)=O)cc1CN1CCn2cccc2C1C` (configuration not stated), the concentration for half-maximal inhibition (IC50) is 31.8 µM and 50.6 µM. The same measure for `Cc1csc(CN(C)C(C)C(=O)N2CCc3ccccc3C2)n1` (configuration not stated): more than 100 µM; for `CC(C)c1cc(N2CCC(C(C)N3CCCC3)CC2)n2nccc2n1` (configuration not stated): 34.3 µM and 31.4 µM. Under `Cc1ccc(N2CCc3sc(C(=O)N4CCOCC4)cc32)nn1` stands more than 100 µM; under `O=C1CC2(CCN(Cc3ccc4cccc(O)c4n3)CC2)CN1`, 46.2 µM and 45.6 µM; under `CCOc1ccc(N(CCC#N)C(=O)c2ccnc(SC)c2)cc1`, more than 100 µM. Under `COc1ccc2c(c1)c(C(=O)Nc1nnn[nH]1)cn2C(C)C` stands more than 100 µM; under `CCC(C#N)NC(=O)CCCOc1cccc(C(C)=O)c1` (configuration not stated), more than 100 µM.

In the case of `CNCCc1nc2cc(F)ccc2[nH]1`, the half-inhibitory concentration (IC50) is 47.9 µM and 34.8 µM.
